Test results from EP4737449A1 (Changchun Genescience Pharmaceutical Co., Ltd., priority 2023, dated 2025).

Legend:
[1] = system: BXPC-3 cells; assay: BXPC-3 3D cell proliferation assay (methylcellulose, CTG, 7 days); assay type: cell-based; details: Homo sapiens, 168 h, drug treatment for 7 days
Description: 1 g of methylcellulose was weighed and placed into a glass ware and autoclaved. After cooling, 100 mL of the corresponding culture medium was added, the mixture was mixed vigorously, and stirred on a 4°C magnetic stirrer; the mixture was completely dissolved after 48 h and stored at 4°C.
The cells were resuscitated with the corresponding culture medium, and were maintained to grow to the logarithmic growth phase. The cell suspension was collected and centrifuged at 1000 rpm for 5 min. After centrifugation was completed, the supernatant was removed and the cells were re-suspended with an appropriate amount of culture medium. […]
After adding 10 µL of culture medium containing the vehicle to each well, the CTG plate was read. […] The cell plate was placed at room temperature for 10 min to stabilize the luminescent signal, and the luminescent value was read using EnVision. […]
The CTG reagent was thawed and the cell plate was equilibrated to room temperature for 30 min. […] The cell plate was placed at room temperature for 10 min to stabilize the luminescent signal, and the luminescent value was read using EnVision.
Cell viability was calculated using the following formula: (Vsample- VBlank) /(Vvehicle control- VBlank) ×100%. […] The S-shaped dose-survival curve was plotted and IC50 calculated by GraphPad Prism software using non-linear regression model.

[2] = Pharmacokinetic study in beagles; assay type: in vivo; details: dog, plasma; for bioavailability: IV 1mpk/PO 2mpk
Description: On the day of administration, the test sample was prepared using a 5%DMSO+5%Solutol+90%Saline vehicle formula, and the drug solution was prepared and kept ready for use.
The IV group received a dose of 1 mg/kg, and the PO group received a dose of 2 mg/kg. The animals were fasted overnight before administration.
The animals were weighed before administration, and the dose was calculated based on the body weight. The drug was administered once via IV and PO on the day of administration. After administration, blood was collected from an appropriate vein at 0.083 h, 0.25 h, 0.5 h, 1.0 h, 2.0 h, 4.0 h, 6.0 h, 8.0 h and 24.0 h, about 1 mL each time, placed in EDTA-K2 anticoagulation blood collection tubes, centrifuged at 4000 rpm for 10 min (4°C), and plasma was separated within 1 h. The plasma was drawn into labeled EP tubes (the label should at least indicate the subject code, animal number, collection time, collection date, etc.), and stored at -80°C for testing. The process from blood collection to centrifugation was carried out in ice bath. The animals were allowed to eat and have free access to water 3 h after administration. The concentration of the test sample in beagle plasma was detected using validated LC-MS/MS.

[3] = system: human-derived lung cancer LU5269 subcutaneous xenograft; assay: Efficacy in human-derived lung cancer LU5269 subcutaneous xenograft model; assay type: in vivo, NOD/SCID mice; details: PO, QD*21
Description: Tumor tissues were collected from LU5269 lung cancer xenograft model bearing mice, cut into tumor masses with a diameter of 2-3 mm, and seeded subcutaneously in the right anterior scapula of NOD/SCID mice.
Before administration, all animals were weighed and tumor volume was measured using a vernier caliper. When the tumor grew to have an average volume of about 140 mm^3, group-based drug administration was performed based on tumor size (vehicle: 0.2% HPC + 0.5% Tween 80). Since tumor volume can affect the effectiveness of treatment, random grouping design was used to group the mice according to tumor volume to ensure that the tumor volumes in different groups were similar. Tumor volume calculation formula: Tumor volume (mm^3) = 1/2 × (a ×b^2) (wherein a denotes the long diameter and b denotes the short diameter).
Table 12 Route, dose and regimen of administration in the subcutaneous xenograft model

## CN1CC[C@@H](Nc2cccc3c(CC(F)(F)F)c(C#CCNC(=O)c4cnn(C(C)(C)C)c4N)nn23)[C@@H](F)C1 [Compound 047]
[1]
  IC50: 0.18 µM
[2]; 1 mg/kg, IV 1mpk
  AUC(0-t): 1400 ng·h/mL
  C0: 414 ng/mL
  Vd: 3.8 L/kg
  clearance: 12.8 mL/min/kg
  half-life: 5.6 h
[2]; 2 mg/kg, PO 2mpk
  AUC(0-t): 1640 ng·h/mL
  Cmax: 199 ng/mL
  Tmax: 2 h
  half-life: 14 h
[2]
  bioavailability: 42%
[3]; 50mpk
  TGI: 82%
[3]; 75mpk
  TGI: 111%
[3]; 100 mpk
  TGI: 119%
[3]; 150mpk
  TGI: 119%

## CNC(=O)c1ccc(NCC#Cc2cc3c(N[C@@H]4CCN(C)C[C@@H]4F)cccc3n2CC(F)(F)F)c(OC)c1 [Control compound, reference compound]
[1]
  IC50: 0.769 µM
[2]; beagle, 1 mg/kg, IV 1mpk
  AUC(0-t): 849 ng·h/mL
  C0: 277 ng/mL
  Vd: 6.7 L/kg
  clearance: 20.4 mL/min/kg
  half-life: 4.8 h
[2]; beagle, 2 mg/kg
  bioavailability: 82%
[2]; beagle, 2 mg/kg, PO 2mpk
  AUC(0-t): 1490 ng·h/mL
  Cmax: 101 ng/mL
  Tmax: 4.7 h
  half-life: 6.7 h
[3]; 100 mpk
  TGI: 119%
